# “And” between values parts separate entries of the source, which are not always exact repeats. Identical values can stand only once. Like-named read-outs stand apart in the source and are kept apart here.
# Legend:
# GST-tagged KLHDC2 = molecular target: T1, GST-tagged KLHDC2 (Homo sapiens, UniProt Q9Y2U9); assay: Fluorescence polarization competition assay, KLHDC2 with TAMRA-SelK peptide (384-well); conditions: for Fluorescence polarization signal: KLHDC2, replicate wells
# T1 sequence (Q9Y2U9 1-362): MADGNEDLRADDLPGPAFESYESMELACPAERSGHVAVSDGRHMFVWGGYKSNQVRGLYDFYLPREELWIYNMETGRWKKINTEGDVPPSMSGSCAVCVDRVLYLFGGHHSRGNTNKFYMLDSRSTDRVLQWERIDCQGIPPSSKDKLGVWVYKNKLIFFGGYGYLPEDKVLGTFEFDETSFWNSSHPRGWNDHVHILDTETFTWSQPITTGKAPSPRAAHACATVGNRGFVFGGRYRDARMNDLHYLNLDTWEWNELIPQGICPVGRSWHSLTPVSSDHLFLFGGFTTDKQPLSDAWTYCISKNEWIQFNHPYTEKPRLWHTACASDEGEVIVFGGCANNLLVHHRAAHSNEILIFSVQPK
# KLHDC2 = molecular target: T2, KLHDC2 (Homo sapiens, UniProt Q9Y2U9); assay: Surface plasmon resonance direct binding to immobilized KLHDC2; conditions: read-out: KLHDC2 Kd (SPR)
# T2 sequence (Q9Y2U9 1-362): T1 sequence (Q9Y2U9 1-362)
# KEAP1 Kelch domain = molecular target: T3, KEAP1 Kelch domain (Homo sapiens, UniProt Q14145); assay: Fluorescence polarization counter-screen, KEAP1 with TAMRA-NRF2 peptide; format: binding; conditions: for Fluorescence polarization signal: KEAP1, replicate wells; for inhibitory effect in the KEAP1 counter-screening assay: concentrations less than 20 µM; for EC50: in figure
# T3 construct: HIS6 (N); made in house; host or cells: Escherichia coli BL21(DE3)
# BRD4 [1] = molecular target: T4, BRD4 (Homo sapiens, UniProt O60885); assay: Cell-based endogenous BRD4 degradation assay (western blot) in SK-BR-3; parameters: expressed in transfected cells
# Description: SK-BR-3 cells (0.25×10^6 cells/well, 2 mL) were seeded in six-well polystyrene plates for 24 hr before the compounds were added at the indicated doses as DMSO solutions. The protease inhibitor MG132 (Selleck Chemicals) was added to the sixth well along with 10 μM 3d at a concentration of 10 μM. The plate was incubated at 37°C for 24 hr, and the cells from each well were collected and lysed in RIPA buffer (Thermo Fisher 89900) with Halt protease and phosphatase inhibitor cocktail (Thermo Fisher 78440). The cellular content was extracted on ice for 20 min, and the protein concentration was determined by BCA assay (Thermo Fisher 23327). 2 μg of each sample was resolved via SDS-PAGE gels, and western blotting was used to visualize the endogenous BRD4 level (BRD4 primary antibody Abcam plc, Ab128874, RRID:AB_11145462, 1:10,000 dilution) with Bio-Rad Gel Doc XR+ imaging system.
# BRD4 [2] = molecular target: T4, BRD4; assay: Cell-based HiBiT BRD4 degradation assay in HEK293T; parameters: expressed in transfected cells; host or cells: HEK293T; conditions: for Relative BRD4 levels (HiBiT luminescence): replicate wells; for DC50: BRD4-HiBiT, HEK293T;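 on all read-outs here: HEK293T cells transiently expressing HiBiT-tagged BRD4, exposed to serially diluted compounds, then lysed for a luminescence read-out that tracks the amount of cellular BRD4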
# T3 sequence (Q14145 321-609 limits assumed): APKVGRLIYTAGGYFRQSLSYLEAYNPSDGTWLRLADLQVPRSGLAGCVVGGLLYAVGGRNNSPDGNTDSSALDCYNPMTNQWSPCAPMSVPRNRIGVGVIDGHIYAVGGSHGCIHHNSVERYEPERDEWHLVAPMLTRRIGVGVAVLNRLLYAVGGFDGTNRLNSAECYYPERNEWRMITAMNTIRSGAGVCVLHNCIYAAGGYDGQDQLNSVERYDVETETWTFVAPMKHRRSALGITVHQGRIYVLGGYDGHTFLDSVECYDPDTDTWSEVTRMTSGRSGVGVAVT
structure (smiles),measurement,setting,value
COc1ccc(C2CC(c3cccc(F)c3)Nc3c(C(=O)O)cc(Br)cc32)cc1OC (stereo not shown) [compound 1],EC50,GST-tagged KLHDC2,2500 nM
same,IC50,GST-tagged KLHDC2,2500 nM
same,Fluorescence polarization signal,GST-tagged KLHDC2; 0.169351 nM,0.6958 and 5.527 and -6.154
same,Fluorescence polarization signal,GST-tagged KLHDC2; 0.508053 nM,0.1958 and 5.927 and -4.854
same,Fluorescence polarization signal,GST-tagged KLHDC2; 1.52416 nM,-13.1042 and -0.4734 and -3.754
same,Fluorescence polarization signal,GST-tagged KLHDC2; 4.57247 nM,1.996 and -1.273 and -4.954
same,Fluorescence polarization signal,GST-tagged KLHDC2; 13.7174 nM,2.396 and 3.527 and -0.6542
same,Fluorescence polarization signal,GST-tagged KLHDC2; 41.1523 nM,2.696 and 0.3828 and -2.854
same,Fluorescence polarization signal,GST-tagged KLHDC2; 123.457 nM,-3.504 and -5.782 and -9.454
same,Fluorescence polarization signal,GST-tagged KLHDC2; 370.37 nM,-4.604 and 3.827 and -2.854
same,Fluorescence polarization signal,GST-tagged KLHDC2; 1111.11 nM,-13.7042 and -3.373 and -3.854
same,Fluorescence polarization signal,GST-tagged KLHDC2; 3333.33 nM,-18.1042 and -20.4734 and -17.5543
same,Fluorescence polarization signal,GST-tagged KLHDC2; 10000 nM,-16.9042 and -31.6734 and -31.9543
same,Kd,KLHDC2,810 nM and 809 nM
same,Fluorescence polarization signal,KEAP1 Kelch domain; 0.169351 nM,15.2 and 20.2 and 9.533
same,Fluorescence polarization signal,KEAP1 Kelch domain; 0.508053 nM,11.1 and 15.1 and 18.7
same,Fluorescence polarization signal,KEAP1 Kelch domain; 1.52416 nM,20.7 and 19.8 (2×)
same,Fluorescence polarization signal,KEAP1 Kelch domain; 4.57247 nM,27.1 and 18.2 and 28.2
same,Fluorescence polarization signal,KEAP1 Kelch domain; 13.7174 nM,24.4 and 19.1 and 17
same,Fluorescence polarization signal,KEAP1 Kelch domain; 41.1523 nM,12.2 and 19.5 and 19.8
same,Fluorescence polarization signal,KEAP1 Kelch domain; 123.457 nM,21.2 and 18.9 and 16.3
same,Fluorescence polarization signal,KEAP1 Kelch domain; 370.37 nM,24.1 and 16.2 and 17.6
same,Fluorescence polarization signal,KEAP1 Kelch domain; 1111.11 nM,21.2 and 15.6 and 17.3
same,Fluorescence polarization signal,KEAP1 Kelch domain; 3333.33 nM,8.697 and 21.8 and 19.7
same,Fluorescence polarization signal,KEAP1 Kelch domain; 10000 nM,14.9 and 22.1 and 19.3
same,inhibitory effect in the KEAP1 counter-screening assay,KEAP1 Kelch domain,did not have an inhibitory effect
same,EC50,KEAP1 Kelch domain,> 20000 nM
Cc1ccc(C)c(C2Nc3c(C(=O)O)cc(Cl)cc3C3C4CCC(C4)C23)c1 (stereo not shown) [compound 2],EC50,GST-tagged KLHDC2,1270 nM
same,IC50,GST-tagged KLHDC2,1300 nM
same,Fluorescence polarization signal,GST-tagged KLHDC2; 0.169351 nM,-6.704 and 3.427 and -1.254
same,Fluorescence polarization signal,GST-tagged KLHDC2; 0.508053 nM,-10.2042 and 5.927 and -5.854
same,Fluorescence polarization signal,GST-tagged KLHDC2; 1.52416 nM,-0.3042 and -6.173 and -5.554
same,Fluorescence polarization signal,GST-tagged KLHDC2; 4.57247 nM,3.896 and 7.124 and -7.354
same,Fluorescence polarization signal,GST-tagged KLHDC2; 13.7174 nM,2.496 and 7.927 and -2.554
same,Fluorescence polarization signal,GST-tagged KLHDC2; 41.1523 nM,1.996 and 10.1266 and 8.192
same,Fluorescence polarization signal,GST-tagged KLHDC2; 123.457 nM,-3.304 and -7.673 and -6.554
same,Fluorescence polarization signal,GST-tagged KLHDC2; 370.37 nM,-2.804 and -8.673 and -1.254
same,Fluorescence polarization signal,GST-tagged KLHDC2; 1111.11 nM,-10.1042 and -12.1734 and -2.854
same,Fluorescence polarization signal,GST-tagged KLHDC2; 3333.33 nM,-28.2042 and -24.2734 and -28.2543
same,Fluorescence polarization signal,GST-tagged KLHDC2; 10000 nM,-26.0042 and -23.7734 and -24.4543
same,Kd,KLHDC2,440 nM and 443 nM
same,Fluorescence polarization signal,KEAP1 Kelch domain; 0.169351 nM,14.7 and 20.2 and 14.4
same,Fluorescence polarization signal,KEAP1 Kelch domain; 0.508053 nM,10.4 and 15.1 and 11.1
same,Fluorescence polarization signal,KEAP1 Kelch domain; 1.52416 nM,17 and 19.8 and 20.3
same,Fluorescence polarization signal,KEAP1 Kelch domain; 4.57247 nM,20.3 and 18.2 and 19.6
same,Fluorescence polarization signal,KEAP1 Kelch domain; 13.7174 nM,18.8 and 19.1 and 18
same,Fluorescence polarization signal,KEAP1 Kelch domain; 41.1523 nM,21.6 and 19.5 and 32
same,Fluorescence polarization signal,KEAP1 Kelch domain; 123.457 nM,24.5 and 18.9 and 12.1
same,Fluorescence polarization signal,KEAP1 Kelch domain; 370.37 nM,22.6 and 16.2 and 24.9
same,Fluorescence polarization signal,KEAP1 Kelch domain; 1111.11 nM,20.2 and 15.6 and 21
same,Fluorescence polarization signal,KEAP1 Kelch domain; 3333.33 nM,14.8 and 21.8 and 27
same,Fluorescence polarization signal,KEAP1 Kelch domain; 10000 nM,17.3 and 22.1 and 15.2
same,inhibitory effect in the KEAP1 counter-screening assay,KEAP1 Kelch domain,did not have an inhibitory effect
same,EC50,KEAP1 Kelch domain,> 20000 nM
"COC(=O)c1cc(Cl)cc2c1NC(c1cccc(OCCC3CCN(CC4CCN(C(=O)CC5N=C(c6ccc(Cl)cc6)c6c(sc(C)c6C)-n6c(C)nnc65)CC4)CC3)c1)C1C3CCC(C3)C21 [compound 8, Methyl 2-chloro-6-(3-(2-(1-((1-(2-((S)–4-(4-chlorophenyl)-2,3,9-trimethyl-6H-thieno[3,2 f][1,2,4]triazolo[4,3 a][1,4]diazepin-6-yl)acetyl)piperidin-4-yl)methyl)piperidin-4-yl)ethoxy)phenyl)-5,6,6a,7,8,9,10,10a-octahydro-7,10-methanophenanthridine-4-carboxylate]",endogenous BRD4 protein degraded,"BRD4 [1]; SK-BR-3, 100 nM, 24 hr",more than 60%
same,endogenous BRD4 degradation (maximal),"BRD4 [1]; SK-BR-3, 10 µM, 24 hr",94%
same,BRD4 remaining,"BRD4 [1]; SK-BR-3, 10 µM, DMSO condition, 24 hr",4%
same,BRD4 remaining,"BRD4 [1]; SK-BR-3, 10 µM, co-treated with MG-132, 24 hr",29%
same,Relative BRD4 levels (HiBiT luminescence),"BRD4 [2]; 4 hr, 0.338702 nM",0.9416 and 0.7691 and 0.8677
same,Relative BRD4 levels (HiBiT luminescence),"BRD4 [2]; 4 hr, 1.01611 nM",1.421 and 0.6823 and 1.057
same,Relative BRD4 levels (HiBiT luminescence),"BRD4 [2]; 4 hr, 3.04832 nM",0.9694 and 0.7305 and 0.8098
same,Relative BRD4 levels (HiBiT luminescence),"BRD4 [2]; 4 hr, 9.14495 nM",0.8569 and 0.4906 and 0.8452
same,Relative BRD4 levels (HiBiT luminescence),"BRD4 [2]; 4 hr, 27.4348 nM",0.6224 and 0.978 and 0.6213
same,Relative BRD4 levels (HiBiT luminescence),"BRD4 [2]; 4 hr, 82.3045 nM",0.6909 and 0.6031 and 0.4253
same,Relative BRD4 levels (HiBiT luminescence),"BRD4 [2]; 4 hr, 246.914 nM",0.2967 and 0.3567 and 0.4735
same,Relative BRD4 levels (HiBiT luminescence),"BRD4 [2]; 4 hr, 740.741 nM",0.2624 and 0.2035 and 0.2314
same,Relative BRD4 levels (HiBiT luminescence),"BRD4 [2]; 4 hr, 2222.22 nM",0.1885 and 0.1435 and 0.2046
same,Relative BRD4 levels (HiBiT luminescence),"BRD4 [2]; 4 hr, 6666.67 nM",0.1767 and 0.1639 and 0.1864
same,Relative BRD4 levels (HiBiT luminescence),"BRD4 [2]; 4 hr, 20000 nM",0.2282 and 0.2025 and 0.226
same,Relative BRD4 levels (HiBiT luminescence),"BRD4 [2]; 24 hr, 0.338702 nM",0.9416 and 0.7691 and 0.8677
same,Relative BRD4 levels (HiBiT luminescence),"BRD4 [2]; 24 hr, 1.01611 nM",1.421 and 0.6823 and 1.057
same,Relative BRD4 levels (HiBiT luminescence),"BRD4 [2]; 24 hr, 3.04832 nM",0.9694 and 0.7305 and 0.8098
same,Relative BRD4 levels (HiBiT luminescence),"BRD4 [2]; 24 hr, 9.14495 nM",0.8569 and 0.4906 and 0.8452
same,Relative BRD4 levels (HiBiT luminescence),"BRD4 [2]; 24 hr, 27.4348 nM",0.6224 and 0.978 and 0.6213
same,Relative BRD4 levels (HiBiT luminescence),"BRD4 [2]; 24 hr, 82.3045 nM",0.6909 and 0.6031 and 0.4253
same,Relative BRD4 levels (HiBiT luminescence),"BRD4 [2]; 24 hr, 246.914 nM",0.2967 and 0.3567 and 0.4735
same,Relative BRD4 levels (HiBiT luminescence),"BRD4 [2]; 24 hr, 740.741 nM",0.2624 and 0.2035 and 0.2314
same,Relative BRD4 levels (HiBiT luminescence),"BRD4 [2]; 24 hr, 2222.22 nM",0.1885 and 0.1435 and 0.2046
same,Relative BRD4 levels (HiBiT luminescence),"BRD4 [2]; 24 hr, 6666.67 nM",0.1767 and 0.1639 and 0.1864
same,Relative BRD4 levels (HiBiT luminescence),"BRD4 [2]; 24 hr, 20000 nM",0.2282 and 0.2025 and 0.226
same,DC50,"BRD4 [2]; 4 hr, read-out: DC50 (4 hr)",164 nM
same,DC50,"BRD4 [2]; 24 hr, read-out: DC50 (24 hr)",80 nM
